Experimental data taken from the NIST ThermoML archive (doi:10.1016/j.fluid.2005.11.016).
Numbers after ± are expanded uncertainties.

Legend:
[1] = Liquid
[2] = excess molar enthalpy (molar enthalpy of mixing); xn = mol fraction of the nth substance listed; conditions: 303.15 K, 101 kPa, Liquid, Calvet calorimetry

| SMILES | vapor or sublimation pressure ([1]; 263.15 K) [kPa] | vapor or sublimation pressure ([1]; 273.15 K) [kPa] | vapor or sublimation pressure ([1]; 283.15 K) [kPa] | vapor or sublimation pressure ([1]; 293.15 K) [kPa] | vapor or sublimation pressure ([1]; 303.15 K) [kPa] | vapor or sublimation pressure ([1]; 313.15 K) [kPa] | vapor or sublimation pressure ([1]; 323.15 K) [kPa] | vapor or sublimation pressure ([1]; 333.15 K) [kPa] | vapor or sublimation pressure ([1]; 343.15 K) [kPa] | vapor or sublimation pressure ([1]; 353.15 K) [kPa] | also measured |
| --- | --- | --- | --- | --- | --- | --- | --- | --- | --- | --- | --- |
| Cc1cccc(C)n1 [2,6-dimethylpyridine] | 0.065 ± 0.007 | 0.143 ± 0.011 | 0.296 ± 0.017 | 0.575 ± 0.028 | 1.061 ± 0.048 | 1.868 ± 0.055 | 3.154 ± 0.066 | 5.129 ± 0.082 | 8.066 ± 0.11 | 12.31 ± 0.14 | – |
| Cc1cccc(C)n1 [2,6-dimethylpyridine] + Cc1ccccc1 | – | – | – | – | – | – | – | – | – | – | excess molar enthalpy ([2]; x1 = 0.0145): 0.0148 ± 0.00239 kcal/mol; excess molar enthalpy ([2]; x1 = 0.2129): 0.0198 ± 0.00239 kcal/mol; excess molar enthalpy ([2]; x1 = 0.2993): 0.0203 ± 0.00239 kcal/mol; excess molar enthalpy ([2]; x1 = 0.3406): 0.021 ± 0.00239 kcal/mol; excess molar enthalpy ([2]; x1 = 0.434): 0.0206 ± 0.00239 kcal/mol; excess molar enthalpy ([2]; x1 = 0.4479): 0.0208 ± 0.00239 kcal/mol; excess molar enthalpy ([2]; x1 = 0.5547): 0.0191 ± 0.00239 kcal/mol; excess molar enthalpy ([2]; x1 = 0.5885): 0.0182 ± 0.00239 kcal/mol; excess molar enthalpy ([2]; x1 = 0.6718): 0.0167 ± 0.00239 kcal/mol; excess molar enthalpy ([2]; x1 = 0.7056): 0.0163 ± 0.00239 kcal/mol; excess molar enthalpy ([2]; x1 = 0.7248): 0.0153 ± 0.00239 kcal/mol; excess molar enthalpy ([2]; x1 = 0.7746): 0.012 ± 0.00239 kcal/mol; excess molar enthalpy ([2]; x1 = 0.8563): 0.00837 ± 0.00239 kcal/mol |
| Cc1cncc(C)c1 [3,5-dimethylpyridine] | 0.016 ± 0.003 | 0.038 ± 0.005 | 0.083 ± 0.008 | 0.169 ± 0.012 | 0.325 ± 0.018 | 0.596 ± 0.029 | 1.049 ± 0.047 | 1.775 ± 0.055 | 2.904 ± 0.064 | 4.603 ± 0.079 | – |
| Cc1cncc(C)c1 [3,5-dimethylpyridine] + Cc1ccccc1 | – | – | – | – | – | – | – | – | – | – | excess molar enthalpy ([2]; x1 = 0.1248): 0.0131 ± 0.00239 kcal/mol; excess molar enthalpy ([2]; x1 = 0.1817): 0.0163 ± 0.00239 kcal/mol; excess molar enthalpy ([2]; x1 = 0.2194): 0.0186 ± 0.00239 kcal/mol; excess molar enthalpy ([2]; x1 = 0.3217): 0.0215 ± 0.00239 kcal/mol; excess molar enthalpy ([2]; x1 = 0.4079): 0.0253 ± 0.00239 kcal/mol; excess molar enthalpy ([2]; x1 = 0.5991): 0.0263 ± 0.00239 kcal/mol; excess molar enthalpy ([2]; x1 = 0.6191): 0.0256 ± 0.00239 kcal/mol |
| Cc1ccccc1 [toluene] | 0.468 ± 0.024 | 0.908 ± 0.043 | 1.666 ± 0.056 | 2.911 ± 0.07 | 4.873 ± 0.093 | 7.852 ± 0.13 | 12.23 ± 0.18 | 18.46 ± 0.26 | 27.12 ± 0.37 | 38.87 ± 0.52 | – |
